Measurements reported in ChEMBL document CHEMBL6071142, “Isoalantolactone/hydroxamic acid hybrids as potent dual STAT3/HDAC inhibitors and self-assembled nanoparticles for cancer therapy” (Eur J Med Chem, 2024).

Experiments:
[1] = tested on: A549; assay: Induction of apoptosis in human A549 cells assessed as necrotic cells at 2 uM incubated for 24 hrs by Annexin V-FITC/PI staining based flow cytometric analysis (reference value: 1.20%); type: functional
[2] = tested on: A549; assay: Induction of apoptosis in human A549 cells assessed as viable cells at 2 uM incubated for 24 hrs by Annexin V-FITC/PI staining based flow cytometric analysis (reference value: 95.08%); type: functional
[3] = biological target: Signal transducer and activator of transcription 3 (Homo sapiens, UniProt P40763); assay: Binding affinity to STAT3 (unknown origin) assessed as dissociation constant by SPR assay
Sequence of Signal transducer and activator of transcription 3 (P40763 whole entry): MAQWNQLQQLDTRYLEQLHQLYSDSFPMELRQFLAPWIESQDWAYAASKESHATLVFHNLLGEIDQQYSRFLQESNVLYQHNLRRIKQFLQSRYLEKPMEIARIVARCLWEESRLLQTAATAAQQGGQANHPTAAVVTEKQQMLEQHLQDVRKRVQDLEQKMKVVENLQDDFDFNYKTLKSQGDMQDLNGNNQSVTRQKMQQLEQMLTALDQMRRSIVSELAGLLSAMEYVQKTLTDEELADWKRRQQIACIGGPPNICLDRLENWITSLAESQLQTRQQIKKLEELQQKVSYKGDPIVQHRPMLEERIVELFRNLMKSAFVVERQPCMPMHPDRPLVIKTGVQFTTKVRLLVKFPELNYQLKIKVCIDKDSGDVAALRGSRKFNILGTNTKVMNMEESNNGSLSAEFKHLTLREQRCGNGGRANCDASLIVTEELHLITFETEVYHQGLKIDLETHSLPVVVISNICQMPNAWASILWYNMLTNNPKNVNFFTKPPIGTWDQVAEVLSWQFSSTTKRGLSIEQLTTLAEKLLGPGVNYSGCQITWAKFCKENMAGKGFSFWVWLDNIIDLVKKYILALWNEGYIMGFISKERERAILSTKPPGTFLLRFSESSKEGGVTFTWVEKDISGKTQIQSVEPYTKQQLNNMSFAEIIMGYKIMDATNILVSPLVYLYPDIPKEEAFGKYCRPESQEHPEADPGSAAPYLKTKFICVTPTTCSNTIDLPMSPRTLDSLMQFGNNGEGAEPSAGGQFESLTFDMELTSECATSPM

[4] = tested on: A549; assay: Induction of apoptosis in human A549 cells assessed as late apoptotic cells at 2 uM incubated for 24 hrs by Annexin V-FITC/PI staining based flow cytometric analysis (reference value: 2.18%); type: functional
[5] = tested on: HCT-116; assay: cells; details: Homo sapiens, HCT-116, 72 h
Description: Antiproliferative activity against human HCT-116 cells assessed as inhibition of cell proliferation incubated for 72 hrs by CCK-8 assay

[6] = tested on: A549; assay: Induction of apoptosis in human A549 cells assessed as early apoptotic cells at 2 uM incubated for 24 hrs by Annexin V-FITC/PI staining based flow cytometric analysis (reference value: 1.53%); type: functional
[7] = tested on: A549; assay: In vivo antitumor activity against human A549 cells xenografted in female BALB/c nu/nu mouse assessed as tumor volume at 10 mg/kg, iv administered every 3 days and measured on 18 day relative to control; type: functional; details: time 3 day
[8] = tested on: A549; assay: cells; type: functional, cell-based; details: Homo sapiens, A549, 72 h
Description: Antiproliferative activity against human A549 cells assessed as inhibition of cell proliferation incubated for 72 hrs by CCK-8 assay

[9] = biological target: Histone deacetylase 2 (Homo sapiens, UniProt Q92769); assay: Inhibition of recombinant human HDAC2 using Boc-Lys (acetyl)-AMC as substrate preincubated with compound for 1 hr followed by substrate addition and measured after 30 mins by microplate reader assay
Sequence of Histone deacetylase 2 (Q92769 whole entry): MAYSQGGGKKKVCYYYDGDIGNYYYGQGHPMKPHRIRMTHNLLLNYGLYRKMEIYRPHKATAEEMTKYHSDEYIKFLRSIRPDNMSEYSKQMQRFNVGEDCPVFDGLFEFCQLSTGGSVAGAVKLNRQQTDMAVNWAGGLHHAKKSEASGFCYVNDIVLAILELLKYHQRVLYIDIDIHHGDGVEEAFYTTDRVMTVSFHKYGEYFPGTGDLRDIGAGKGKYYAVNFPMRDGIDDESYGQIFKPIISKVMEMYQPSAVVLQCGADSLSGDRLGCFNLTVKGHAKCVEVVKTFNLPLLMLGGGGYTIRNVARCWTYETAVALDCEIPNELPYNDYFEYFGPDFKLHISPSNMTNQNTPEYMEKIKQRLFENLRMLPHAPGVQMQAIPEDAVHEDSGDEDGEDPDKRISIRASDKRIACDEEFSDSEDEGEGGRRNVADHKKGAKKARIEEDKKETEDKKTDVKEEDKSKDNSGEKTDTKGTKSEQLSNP

[10] = biological target: Histone deacetylase 3 (Homo sapiens, UniProt O15379); assay: Inhibition of recombinant human HDAC3 using Boc-Lys (acetyl)-AMC as substrate preincubated with compound for 1 hr followed by substrate addition and measured after 30 mins by microplate reader assay
Sequence of Histone deacetylase 3 (O15379 whole entry): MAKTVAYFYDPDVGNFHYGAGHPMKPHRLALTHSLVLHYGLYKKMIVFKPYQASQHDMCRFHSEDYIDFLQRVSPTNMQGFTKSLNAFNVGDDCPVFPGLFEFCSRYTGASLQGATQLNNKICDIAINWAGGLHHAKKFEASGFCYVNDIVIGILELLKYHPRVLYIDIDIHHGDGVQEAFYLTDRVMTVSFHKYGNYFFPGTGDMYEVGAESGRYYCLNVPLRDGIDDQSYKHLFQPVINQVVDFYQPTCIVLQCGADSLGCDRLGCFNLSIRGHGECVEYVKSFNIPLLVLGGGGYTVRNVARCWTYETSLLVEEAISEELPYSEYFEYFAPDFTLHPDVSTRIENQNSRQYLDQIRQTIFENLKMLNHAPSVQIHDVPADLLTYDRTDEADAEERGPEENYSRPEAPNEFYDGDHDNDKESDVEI

[11] = biological target: T1, Protein deacetylase HDAC6 (Homo sapiens, UniProt Q9UBN7); assay: Inhibition of recombinant human HDAC6 using Boc-Lys (acetyl)-AMC as substrate preincubated with compound for 1 hr followed by substrate addition and measured after 30 mins by microplate reader assay
T1 sequence (Q9UBN7 whole entry): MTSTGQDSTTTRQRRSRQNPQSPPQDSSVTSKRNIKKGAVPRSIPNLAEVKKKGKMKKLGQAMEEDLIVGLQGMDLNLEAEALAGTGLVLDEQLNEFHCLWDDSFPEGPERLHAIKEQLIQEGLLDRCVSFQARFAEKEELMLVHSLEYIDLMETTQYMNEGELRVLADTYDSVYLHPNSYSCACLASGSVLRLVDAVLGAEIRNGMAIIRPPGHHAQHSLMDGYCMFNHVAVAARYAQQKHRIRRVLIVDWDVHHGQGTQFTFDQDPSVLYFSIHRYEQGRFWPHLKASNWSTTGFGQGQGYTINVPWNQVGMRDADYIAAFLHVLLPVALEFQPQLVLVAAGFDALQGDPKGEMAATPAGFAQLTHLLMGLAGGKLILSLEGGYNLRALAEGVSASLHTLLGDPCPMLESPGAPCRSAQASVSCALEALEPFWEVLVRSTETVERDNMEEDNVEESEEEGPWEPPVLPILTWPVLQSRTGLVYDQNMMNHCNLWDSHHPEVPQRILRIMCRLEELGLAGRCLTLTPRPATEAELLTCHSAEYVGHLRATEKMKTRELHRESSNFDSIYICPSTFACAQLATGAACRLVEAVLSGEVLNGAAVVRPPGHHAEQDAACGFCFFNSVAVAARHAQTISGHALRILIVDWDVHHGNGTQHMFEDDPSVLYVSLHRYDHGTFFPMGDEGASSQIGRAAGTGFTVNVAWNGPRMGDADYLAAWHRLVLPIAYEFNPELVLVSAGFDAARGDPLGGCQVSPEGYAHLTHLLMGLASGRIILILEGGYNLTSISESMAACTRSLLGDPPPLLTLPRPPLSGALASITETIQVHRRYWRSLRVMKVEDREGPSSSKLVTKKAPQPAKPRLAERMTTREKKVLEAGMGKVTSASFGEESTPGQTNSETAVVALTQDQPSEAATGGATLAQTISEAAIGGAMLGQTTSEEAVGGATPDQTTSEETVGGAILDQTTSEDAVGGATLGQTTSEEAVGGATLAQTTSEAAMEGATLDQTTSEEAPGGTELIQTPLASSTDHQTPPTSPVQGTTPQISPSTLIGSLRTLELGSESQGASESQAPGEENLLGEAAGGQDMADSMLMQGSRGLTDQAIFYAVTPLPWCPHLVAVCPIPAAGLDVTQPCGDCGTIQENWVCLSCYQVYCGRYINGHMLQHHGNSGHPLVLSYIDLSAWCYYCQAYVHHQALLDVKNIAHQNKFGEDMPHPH

[12] = biological target: Histone deacetylase 1 (Homo sapiens, UniProt Q13547); assay: Inhibition of recombinant human HDAC1 using Boc-Lys (acetyl)-AMC as substrate preincubated with compound for 1 hr followed by substrate addition and measured after 30 mins by microplate reader assay
Sequence of Histone deacetylase 1 (Q13547 whole entry): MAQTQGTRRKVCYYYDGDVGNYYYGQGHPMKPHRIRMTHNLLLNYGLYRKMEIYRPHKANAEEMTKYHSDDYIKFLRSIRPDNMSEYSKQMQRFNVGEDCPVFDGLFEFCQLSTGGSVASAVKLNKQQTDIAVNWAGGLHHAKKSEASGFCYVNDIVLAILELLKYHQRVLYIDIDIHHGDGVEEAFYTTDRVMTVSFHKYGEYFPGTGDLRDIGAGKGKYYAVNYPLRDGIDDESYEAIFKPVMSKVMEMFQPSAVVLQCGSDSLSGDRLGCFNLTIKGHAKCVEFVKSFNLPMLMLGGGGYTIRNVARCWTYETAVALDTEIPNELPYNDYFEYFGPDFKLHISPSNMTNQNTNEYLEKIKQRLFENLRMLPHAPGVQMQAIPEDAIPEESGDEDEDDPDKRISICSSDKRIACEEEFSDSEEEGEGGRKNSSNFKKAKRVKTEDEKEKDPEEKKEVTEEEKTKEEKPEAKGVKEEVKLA

[13] = tested on: HepG2; assay: Antiproliferative activity against human HepG2 cells assessed as inhibition of cell proliferation incubated for 72 hrs by CCK-8 assay; type: functional, cell-based; details: HepG2, 72 h
[14] = tested on: HeLa; assay: cells; type: functional, cell-based; details: Homo sapiens, 72 h
Description: Antiproliferative activity against human Hela cells assessed as inhibition of cell proliferation incubated for 72 hrs by CCK-8 assay

O=C(CCCCCCC(=O)Nc1ccccc1)NO [VORINOSTAT]
Activity [1]: 2.58%
Activity [2]: 67.04%
Kd [3]: > 50000 nM
Activity [4]: 24.68%
IC50 [5]: 1870 nM
Activity [6]: 5.72%
Activity [7]: 61%

C=C1C(=O)O[C@@H]2C[C@@]3(C)CC[C@@H](OC(=O)[C@@H](C)NC(=O)c4ccc(C(=O)NO)cc4)C(=C)[C@@H]3C[C@H]12
IC50 [8]: > 10000 nM
Kd [3]: 20100 nM
IC50 [9]: > 1000 nM
IC50 [10]: > 1000 nM
IC50 [11]: 162 nM
IC50 [12]: 748 nM

C=C1C(=O)O[C@@H]2C[C@@]3(C)CC[C@@H](OC(=O)[C@@H](C)NC(=O)c4cccc(/C=C/C(=O)NO)c4)C(=C)[C@@H]3C[C@H]12
IC50 [8]: 4330 nM
Kd [3]: 13500 nM
IC50 [9]: 313 nM
IC50 [10]: 103 nM
IC50 [11]: 86.9 nM
IC50 [12]: 197 nM

C=C1C(=O)O[C@@H]2C[C@@]3(C)CC[C@@H](OC(=O)CNC(=O)c4ccc(C(=O)NO)cc4)C(=C)[C@@H]3C[C@H]12
IC50 [8]: 2560 nM
Kd [3]: > 50000 nM
IC50 [9]: 189 nM
IC50 [10]: 107 nM
IC50 [11]: 87.5 nM
IC50 [12]: 202 nM

C=C1C(=O)O[C@@H]2C[C@@]3(C)CC[C@@H](OC(=O)CNC(=O)c4ccc(C(=O)Nc5ccccc5N)cc4)C(=C)[C@@H]3C[C@H]12
IC50 [8]: > 10000 nM
Kd [3]: 39300 nM
IC50 [9]: > 1000 nM
IC50 [10]: > 1000 nM
IC50 [11]: > 1000 nM
IC50 [12]: > 1000 nM

C=C1C(=O)O[C@@H]2C[C@@]3(C)CC[C@@H](OC(=O)[C@H](CC(C)C)NC(=O)c4ccc(C(=O)Nc5ccccc5N)cc4)C(=C)[C@@H]3C[C@H]12
IC50 [8]: > 10000 nM
Kd [3]: > 50000 nM
IC50 [9]: > 1000 nM
IC50 [10]: > 1000 nM
IC50 [11]: > 1000 nM
IC50 [12]: > 1000 nM

C=C1C(=O)O[C@@H]2C[C@@]3(C)CC[C@@H](OC(=O)[C@H](CC)NC(=O)c4ccc(C(=O)Nc5ccccc5N)cc4)C(=C)[C@@H]3C[C@H]12
IC50 [8]: > 10000 nM
Kd [3]: 22600 nM
IC50 [9]: > 1000 nM
IC50 [10]: > 1000 nM
IC50 [11]: > 1000 nM
IC50 [12]: > 1000 nM

C=C1C(=O)O[C@@H]2C[C@@]3(C)CC[C@@H](OC(=O)[C@H](C)NC(=O)c4ccc(C(=O)NO)cc4)C(=C)[C@@H]3C[C@H]12
IC50 [8]: > 10000 nM
Kd [3]: > 50000 nM
IC50 [9]: 844 nM
IC50 [10]: 441 nM
IC50 [11]: 267 nM
IC50 [12]: 568 nM

C=C1C(=O)O[C@@H]2C[C@@]3(C)CC[C@@H](OC(=O)[C@@H](C)NC(=O)c4ccc(C(=O)Nc5ccccc5N)cc4)C(=C)[C@@H]3C[C@H]12
IC50 [8]: 2240 nM
Kd [3]: 4960 nM
IC50 [9]: 507 nM
IC50 [10]: 473 nM
IC50 [11]: > 1000 nM
IC50 [12]: 122 nM

C=C1C(=O)O[C@@H]2C[C@@]3(C)CC[C@@H](OC(=O)[C@@H](C)NC(=O)c4ccc(/C=C/C(=O)NO)cc4)C(=C)[C@@H]3C[C@H]12
IC50 [8]: 4530 nM
Kd [3]: 3890 nM
IC50 [9]: 342 nM
IC50 [10]: 272 nM
IC50 [11]: 64 nM
IC50 [12]: 193 nM

C=C1C(=O)O[C@@H]2C[C@@]3(C)CC[C@@H](OC(=O)[C@H](C)NC(=O)c4cccc(/C=C/C(=O)NO)c4)C(=C)[C@@H]3C[C@H]12
IC50 [8]: 4530 nM
Kd [3]: 12300 nM
IC50 [9]: 404 nM
IC50 [10]: 113 nM
IC50 [11]: 62.4 nM
IC50 [12]: 206 nM

C=C1C(=O)O[C@@H]2C[C@@]3(C)CCCC(=C)[C@@H]3C[C@H]12 [ISOALANTOLACTONE]
IC50 [8]: 1810 nM
Activity [1]: 1.82%
viability at 2 µM ([2]; Homo sapiens, A549, read-out: Activity): 83.6%
IC50 [13]: 7250 nM
IC50 [14]: 4380 nM
Kd [3]: 46100 nM
Activity [4]: 10.91%
IC50 [5]: 2610 nM
IC50 [9]: > 1000 nM
IC50 [10]: > 1000 nM
Activity [6]: 3.67%
IC50 [11]: > 1000 nM
IC50 [12]: > 1000 nM

C=C1C(=O)O[C@@H]2C[C@@]3(C)CC[C@@H](OC(=O)[C@H](C)NC(=O)c4ccc(C(=O)Nc5ccccc5N)cc4)C(=C)[C@@H]3C[C@H]12
IC50 [8]: 3340 nM
Kd [3]: 8960 nM
IC50 [9]: > 1000 nM
IC50 [10]: > 1000 nM
IC50 [11]: > 1000 nM
IC50 [12]: > 1000 nM

C=C1C(=O)O[C@@H]2C[C@@]3(C)CC[C@@H](OC(=O)[C@H](Cc4ccccc4)NC(=O)c4ccc(C(=O)Nc5ccccc5N)cc4)C(=C)[C@@H]3C[C@H]12
IC50 [8]: > 10000 nM
Kd [3]: > 50000 nM
IC50 [9]: > 1000 nM
IC50 [10]: > 1000 nM
IC50 [11]: > 1000 nM
IC50 [12]: > 1000 nM

C=C1C(=O)O[C@@H]2C[C@@]3(C)CC[C@@H](OC(=O)[C@@H](NC(=O)c4ccc(C(=O)Nc5ccccc5N)cc4)C(C)C)C(=C)[C@@H]3C[C@H]12
IC50 [8]: > 10000 nM
Kd [3]: 17400 nM
IC50 [9]: > 1000 nM
IC50 [10]: > 1000 nM
IC50 [11]: > 1000 nM
IC50 [12]: > 1000 nM

C=C1C(=O)O[C@@H]2C[C@@]3(C)CC[C@@H](OC(=O)[C@@H](CC(C)C)NC(=O)c4ccc(C(=O)Nc5ccccc5N)cc4)C(=C)[C@@H]3C[C@H]12
IC50 [8]: 5610 nM
Kd [3]: 6880 nM
IC50 [9]: > 1000 nM
IC50 [10]: > 1000 nM
IC50 [11]: > 1000 nM
IC50 [12]: 453 nM

C=C1C(=O)O[C@@H]2C[C@@]3(C)CC[C@@H](OC(=O)[C@@H](CC)NC(=O)c4ccc(C(=O)Nc5ccccc5N)cc4)C(=C)[C@@H]3C[C@H]12
IC50 [8]: 6670 nM
Kd [3]: 20700 nM
IC50 [9]: > 1000 nM
IC50 [10]: > 1000 nM
IC50 [11]: > 1000 nM
IC50 [12]: 6510 nM

C=C1C(=O)O[C@@H]2C[C@@]3(C)CC[C@@H](OC(=O)[C@@H](Cc4ccccc4)NC(=O)c4ccc(C(=O)Nc5ccccc5N)cc4)C(=C)[C@@H]3C[C@H]12
IC50 [8]: 7470 nM
Kd [3]: 4760 nM
IC50 [9]: > 1000 nM
IC50 [10]: > 1000 nM
IC50 [11]: > 1000 nM
IC50 [12]: 622 nM

C=C1C(=O)O[C@@H]2C[C@@]3(C)CC[C@@H](OC(=O)CNC(=O)c4cccc(/C=C/C(=O)NO)c4)C(=C)[C@@H]3C[C@H]12
IC50 [8]: 1870 nM
IC50 [9]: 92.7 nM
IC50 [10]: 63.1 nM
IC50 [11]: 45.3 nM
IC50 [12]: 86.5 nM

C=C1C(=O)O[C@@H]2C[C@@]3(C)CC[C@@H](OC(=O)[C@H](NC(=O)c4ccc(C(=O)Nc5ccccc5N)cc4)C(C)C)C(=C)[C@@H]3C[C@H]12
IC50 [8]: > 10000 nM
Kd [3]: > 50000 nM
IC50 [9]: > 1000 nM
IC50 [10]: > 1000 nM
IC50 [11]: > 1000 nM
IC50 [12]: > 1000 nM

Nc1ccc(F)cc1NC(=O)c1ccc(CNC(=O)/C=C/c2cccnc2)cc1
IC50 [8]: 6400 nM
Kd [3]: > 50000 nM
IC50 [9]: 212 nM
